Assays:
MDA-MB-231 = assay: Antiproliferative activity against human MDA-MB-231 cells incubated for 48 hrs by SRB assay; type: functional; details: MDA-MB-231, 48 h
HCT-116 = assay: Antiproliferative activity against human HCT116 cells incubated for 48 hrs by SRB assay; type: functional; details: HCT-116, 48 h

SMILES | GI50 (MDA-MB-231) | GI50 (HCT-116)
O=C(Nc1ccc(F)cc1)c1ccc(CNC2=C(Cl)C(=O)c3ccccc3C2=O)cc1 | > 10 µM | > 10 µM
O=C(Nc1nc2ccccc2[nH]1)c1ccc(CNC2=C(Cl)C(=O)c3ccccc3C2=O)cc1 | 8.9 µM | > 10 µM
O=C(Nc1ccc2cn[nH]c2c1)c1ccc(CNC2=C(Cl)C(=O)c3ccccc3C2=O)cc1 | > 10 µM | > 10 µM
O=C(Nc1ccccn1)c1ccc(CNC2=C(Cl)C(=O)c3ccccc3C2=O)cc1 | > 10 µM | > 10 µM
O=C(Nc1cccnc1)c1ccc(CNC2=C(Cl)C(=O)c3ccccc3C2=O)cc1 | > 10 µM | > 10 µM

From ChEMBL document CHEMBL4130444, “1,4-Naphthoquinones as inhibitors of Itch, a HECT domain-E3 ligase, and tumor growth suppressors in multiple myeloma” (Eur J Med Chem, 2017)
